Values joined by “and” are separate entries in the source; they are usually repeats but may differ in a detail not shown here. Equal entries are not always repeated. Where two headings read alike, the source gives them in different places.
Key:
[1] = test system: patients suffering from ischemic heart disease; experiment: Tolerance: occurrence and severity of adverse events (Example 1); type: in vivo, human
From the text: Cumulative results on the severity of the three subjective symptoms of the composite (chest pain, dyspnea, flushing) rated from 0 to 30. Cumulative results on the severity of the three subjective symptoms of the composite (chest pain, dyspnea, flushing) rated from 0 to 30.

[2] = test system: patients; type: in vivo, human
[3] = test system: patients; conditions: most frequently reported adverse effects with adenosine; cited from earlier work
[4] = test system: patients suffering from ischemic heart disease; experiment: Transthoracic doppler echocardiography (TTDE) blood flow velocity in LAD, sequential administration (Example 1); type: in vivo, human; conditions: mean; for Mean velocity Min / Peak velocity Min: at rest (basal); for Mean velocity Max / Peak velocity Max: under stress
Description: In the combined administration, each of the two agents was administered at a dosage lower than its clinically preferred dosage when used as a single agent for myocardial perfusion imaging. Effects were measured using noninvasive transthoracic doppler echocardiography (TTDE).
Primary efficacy end-points were peak and mean diastolic flow velocities (measured as reflecting coronary blood flow values). The secondary end-point was patient tolerance to the procedure. The protocol was designed as follows.
Forty (40) consecutive patients suffering from ischemic heart disease were enrolled. Each patient served as their own control.
[…] Total doses are between about 4-6% of the lowest single-agent total dose of dipyridamole (i.e., 0.56 mg/kg, infused over a total of 4 minutes).
This dose is half the standard single-agent dosage rate of 140 μg/kg/min.

[5] = test system: coronary patients; experiment: SPECT imaging study, summed difference scores (Example 2, Phase II); type: in vivo, human; set-up: key: SDS = SSS − SRS; summed 17-segment scores, each segment 0–4; conditions: Series I sequential: SC = dipyridamole 40 μg/kg bolus then adenosine 70 μg/kg/min 4 min; Adenoscan 140 μg/kg/min; 10 patients
From the text: The study was a mono-center, single-blind, 2-arm, cross-over trial.
Only those patients in whom an ischemic zone was detected were declared eligible for the second test, and were enrolled in the study if other inclusion criteria were satisfied.
SPECT images were acquired as per the standard approach performed the preceding week.
Since thallium is currently deemed the best isotope to test myocardial viability at rest, and sestamibi the best isotope to detect myocardial defects under stress conditions, a dual isotope myocardial scintigraphy technique was used for this study. The isotope was injected after a 3 minute infusion with Adenoscan or after a 2.5 minute infusion with the combination. […]
Randomization of SPECT images, and their analysis by two blinded readers, took place every 10 patients. Anonymous and randomized images were assessed using the standard 17-segment model and the semi-quantitative visual score method on a 5-point scale (from 0 to 4). An additional totally computerized quantitative method was performed using the validated CardioGam software (Segami Corp.). All images were interpreted and quantified automatically by the software calculation package. […]
Summed stress scores (with Adenosine or with Adenosoft) were defined as SSS, summed rest scores (Thallium) as SRS and summed difference scores as SDS=SSS-SRS. […] If >2, images were read again by a third independent expert. […]

[6] = test system: coronary patients; experiment: Tolerance, severity of main symptoms (Example 3); type: in vivo, human
From the text: Primary efficacy end-points were peak and mean diastolic flow velocities (their measurements reflect coronary blood flow values). The secondary end-point was patient's tolerance to the procedure.

[7] = test system: patients with normal coronary reserve; experiment: Priming dose effect: time to peak and return to baseline, concurrent administration (Example 4); type: in vivo, human; conditions: for Time to peak, individual patients / Return to BL, individual patients / Return to BL, Mean / Return to BL, Total / Time to peak, Mean / Time to peak, Total: N = 6; for Time to peak, individual patients / Return to BL, individual patients: listed as ADE; for Time to peak (near maximal hyperemia): adenosine alone vs concurrent combination without priming dose, on average
From the text: As a test, a low priming dose of dipyridamole was combined with the concurrent administration of the two drugs to determine whether the time to peak and the occurrence of near maximal hyperaemia could be accelerated, especially when infusion time is reduced by, for example, one minute.

[8] = DIP4 (n = 5), dipyridamole 35 μg/kg
[9] = DIP5 (n = 30), dipyridamole 28 μg/kg
[10] = DIP6 (n = 5), dipyridamole 23 μg/kg
[11] = TOTAL (n = 40), all dipyridamole doses
[12] = all 40 patients, ADE 140 μg/kg/min, All SC (DIP 4/5/6)
[13] = DIP dose 28 μg/kg, ADE 140 μg/kg/min
[14] = DIP dose 35 μg/kg, ADE 140 μg/kg/min, listed as ADE
[15] = DIP dose 40 μg/kg, ADE 140 μg/kg/min, listed as ADE
[16] = before infusion, DIP5: SC = dipyridamole 28 μg/kg + adenosine 70 μg/kg/min, ADE = adenosine 140 μg/kg/min, 30 patients
[17] = DIP4: SC = dipyridamole 35 μg/kg + adenosine 70 μg/kg/min, ADE = adenosine 140 μg/kg/min, 5 patients
[18] = DIP6: SC = dipyridamole 23 μg/kg + adenosine 70 μg/kg/min, ADE = adenosine 140 μg/kg/min, 5 patients
[19] = DIP4: SC = dipyridamole 35 μg/kg IV bolus then adenosine 70 μg/kg/min, ADE = adenosine alone 140 μg/kg/min, 5 patients
[20] = DIP5: SC = dipyridamole 28 μg/kg IV bolus then adenosine 70 μg/kg/min 3 min, ADE = adenosine alone 140 μg/kg/min 3 min, 30 patients
[21] = DIP6: SC = dipyridamole 23 μg/kg IV bolus then adenosine 70 μg/kg/min, ADE = adenosine alone 140 μg/kg/min, 5 patients
[22] = cumulated, all 40 patients: SC = dipyridamole 23, 28 or 35 μg/kg bolus then adenosine 70 μg/kg/min, ADE = adenosine alone 140 μg/kg/min
[23] = adenosine 70 μg/kg/min + dipyridamole 10 μg/kg/min vs adenosine 140 μg/kg/min, 2 min
[24] = ADE vs C concurrent with dipyridamole priming dose (0.1 mg)
[25] = with dipyridamole priming dose (0.1 mg)
[26] = without dipyridamole priming dose

Nc1ncnc2c1ncn2[C@@H]1O[C@H](CO)[C@@H](O)[C@H]1O [adenosine]
Severity of dyspnea [1, 8]: 1.4 ± 1.95
Severity of flushing [1, 8]: 2.9 ± 2.88
Severity of chest pain ([1]; DIP4 (n = 5): SC dipyridamole 35 μg/kg + adenosine 70 μg/kg/min vs adenosine alone 140 μg/kg/min): 1.2 ± 2.68
Severity of dyspnea [1, 9]: 2.33 ± 2.59
Severity of flushing [1, 9]: 2.35 ± 2.53
Severity of chest pain ([1]; DIP5 (n = 30): SC dipyridamole 28 μg/kg + adenosine 70 μg/kg/min vs adenosine alone 140 μg/kg/min): 1.12 ± 1.95
Severity of dyspnea [1, 10]: 5 ± 3.08
Severity of flushing [1, 10]: 3.2 ± 3.42
Severity of chest pain ([1]; DIP6 (n = 5): SC dipyridamole 23 μg/kg + adenosine 70 μg/kg/min vs adenosine alone 140 μg/kg/min): 0 ± 0
Severity of chest pain [1, 11]: 0.99 ± 1.93
Severity of dyspnea [1, 11]: 2.55 ± 2.71
Severity of flushing [1, 11]: 2.52 ± 2.63
Chest pain, frequency [1, 12]: 22.5%
Dyspnea, # patients reporting events [1, 12]: 20
Dyspnea, frequency [1, 12]: 50%
Flushing, # patients reporting events [1, 12]: 21
Flushing, frequency [1, 12]: 52.5%
Chest pain, # patients reporting events ([1]; all 40 patients, ADE adenosine alone 140 μg/kg/min, All SC (DIP 4/5/6) dipyridamole 23, 28 or 35 μg/kg + adenosine 70 μg/kg/min): 9
PV Max, individual patient ([2]; DIP dose 28 μg/kg bolus alone, ADE 140 μg/kg/min 3 min): 84 cm/sec
MV Max, individual patient [2, 13]: 64 cm/s
MV Min, individual patient [2, 13]: 20 cm/s
PV Min, individual patient [2, 13]: 27 cm/sec
PV Max, individual patients ([2]; DIP dose 35 μg/kg bolus alone, ADE 140 μg/kg/min 3 min, listed as ADE): 88 cm/sec and 84 cm/sec
MV Max, individual patients [2, 14]: 71 cm/s and 61 cm/s
MV Min, individual patients [2, 14]: 21 cm/s and 23 cm/s
PV Min, individual patients [2, 14]: 25 cm/sec and 32 cm/sec
PV Max, individual patients ([2]; DIP dose 40 μg/kg bolus alone, ADE 140 μg/kg/min 3 min, listed as ADE): 92 cm/sec and 112 cm/sec
PV Min, individual patients ([2]; DIP dose 40 μg/kg, ADE 140 μg/kg/min): 33 cm/sec
MV Max, individual patients [2, 15]: 67 cm/s and 86 cm/s
MV Min, individual patients [2, 15]: 23 cm/s and 25 cm/s
Frequency of chest pain or chest discomfort [3]: 40%
Frequency of gastrointestinal discomfort [3]: 13%
Frequency of throat or neck or jaw discomfort [3]: 15%
Mean velocity Min [4, 16]: 23.1 cm/s
Peak velocity Min [4, 16]: 30.6 cm/sec
Mean velocity Min [4, 17]: 22.2 cm/s
Peak velocity Min [4, 17]: 28 cm/sec
Mean velocity Min [4, 18]: 28.2 cm/s
Peak velocity Min [4, 18]: 37.6 cm/sec
Mean velocity Min ([4]; cumulated, all 40 patients): 23.7 cm/s
Peak velocity Min ([4]; cumulated, all 40 patients): 31.2 cm/sec
Mean velocity Max [4, 19]: 60.4 cm/s
Peak velocity Max [4, 19]: 80 cm/sec
Mean velocity Max [4, 20]: 61.4 cm/s
Peak velocity Max [4, 20]: 82.6 cm/sec
Mean velocity Max [4, 21]: 80.2 cm/s
Peak velocity Max [4, 21]: 107 cm/sec
Mean velocity Max [4, 22]: 63.6 cm/s
Peak velocity Max [4, 22]: 85.3 cm/sec
SDS (summed difference scores), individual patients [5]: 5 (5×) and 4 (2×) and 14 and 13 and 7
Patients who experienced thoracic discomfort ([6]; Example 3 series): 4 patients
Severity of chest pain [6, 23]: 0.68 ± 1.87
Severity of dyspnea [6, 23]: 3.64 ± 3.67
Severity of flushing [6, 23]: 4.50 ± 3.15
Time to peak, individual patients ([7]; ADE 140 μg/kg/min vs C (Dip 10 μg/kg/min + Ade 70 μg/kg/min) concurrent without dipyridamole priming dose): 56 s and 120 s and 50 s and 85 s and 80 s and 75 s
Return to BL, individual patients ([7]; ADE 140 μg/kg/min vs C concurrent without dipyridamole priming dose): 75 seconds and 60 seconds (3×) and 100 seconds and 48 seconds
Return to BL, individual patients [7, 24]: 55 s and 65 s and 54 s and 67 s and 48 s and 60 s
Time to peak, individual patients [7, 24]: 74 s and 55 s and 45 s and 44 s and 30 s and 40 s
Time to peak (near maximal hyperemia) [7]: about 1 minute
Time to peak (near maximal hyperemia) ([7]; listed as Adenoscan): ~1 min
Return to BL, Mean [7, 25]: 58.1 s
Return to BL, Total [7, 25]: 349 s
Time to peak, Mean [7, 25]: 48 s
Time to peak, Total [7, 25]: 288 s
Return to BL, Mean [7, 26]: 67.1 s
Return to BL, Total [7, 26]: 403 s
Time to peak, Mean [7, 26]: 69.3 s
Time to peak, Total [7, 26]: 416 s
